Assay results from patent publication US11518785B2, “Peptide showing melanogenesis promoting activity and use thereof” (CAREGEN CO., LTD., priority 2017, dated 2022).
Several values for one entry are separate records, joined by “and”; a condition that tells them apart may be missing. Identical values can stand only once.

Assays:
Type in all cases: cell-based, mouse
[1] = system: melanocytes (B16F10 cell line); test: Melanogenesis assay (melanin content); settings: for Melanin content (%): B16F10, 72 hours, control group = 100; for melanogenesis: mouse melanin cell line B16F10 treated with the peptide, result in words
Protocol: After seeding melanocytes (B16F10 cell line) in 6-well plates at the density of 5×10^4 cells/well, the melanocytes were cultured in an incubator at a temperature of 37° C. for 24 hours, and the medium of each plate was removed and replaced with 2% serum-containing media, followed by treatment with the present peptide at different concentrations and then incubation of 72 hours.
Then, the culture medium was removed, and the cells were taken off and then transferred into 1.5-ml tubes, followed by centrifugation at 13,000 rpm for 3 minutes to remove the supernatant. Next, cell pellets were collected to observe melanin. 150 μl of 1 N NaOH was added to the cell pellets to lyse intracellular melanin at a temperature of 60° C. for 30 minutes.

[2] = system: MITF mRNA in B16F10 cell line; test: RT-PCR of melanogenesis-related genes: MITF; settings: B16F10 treated with the peptide, 72 hours, result in words
Protocol: (§1) Melanocytes (B16F10 cell line) were seeded on 6-well culture plates at the density of 5×10^4 cells/well and incubated in an incubator for 24 hours. Then, the medium was replaced with […], and the cells were treated with the peptides of the present invention with different concentrations and cultured for 72 hours. Next, after RNA extraction of cells and quantification, cDNA was synthesized by using the cDNA synthesis kit (Intron, Korea). […] Then, degrees of mRNA expression of the growth factors under each sample treatment conditions were compared by running the resultants on a 5% agarose gel, and the results are shown in FIGS. 3, 8, and 13.

[3] = system: tyrosinase in melanoma cell line (B16F10) cells; test: Tyrosinase activity assay in lysates of treated cells (L-DOPA); settings: for Tyrosinase activity (%): B16F10, 72 hours, control group = 100; for tyrosinase activity: mouse melanin cell line B16F10 treated with the peptide, result in words
Protocol: Melanoma cell line (B16F10) cells were cultured in 6-well culture plates for 24 hours, and treated with the peptide with different concentrations, followed by culture for 72 hours. The 6-well culture plates were loaded on ice and washed with cool PBS, and then 300 μl of 0.1 M sodium phosphate buffer (pH 6.8, lysis buffer) containing 1% Triton X-100 was added. The cells were collected in 1.5-ml tubes, and then cell membranes were disrupted by repeating five times rapid-freezing at […] and thawing. After centrifugation at 15,000 rpm for 10 minutes, the supernatant was collected in other 1.5-mL tubes, and the protein of the samples was quantified. The samples were diluted to have the same protein concentration and then dispensed in every three wells in 96-well culture plates, and then 20 μl of 10 mM L-DOPA was added, followed by incubation at 37° C. for 1 hour The blank and positive control were as shown in Table 5.
Then, the absorbance was measured at 475 nm, and the results are shown in FIGS. 2, 7, and 12, and Tables 6 to 8.

[4] = system: TRP1 mRNA in B16F10 cell line; test: RT-PCR of melanogenesis-related genes: TRP1; settings: B16F10 treated with the peptide, 72 hours, result in words
Protocol: as §1

[5] = system: MITF and tyrosinase protein in B16F10 cell line; test: Western blotting of melanogenesis-related proteins; settings: B16F10 treated with the peptide, 72-hour incubation, result in words
Protocol: (§2) Melanocytes (B16F10 cell line) were seeded on 6-well culture plates at the density of 5×10^4 cells/well and incubated in an incubator for 24 hours, and the cells were treated with the peptides of the present invention with different concentrations. After 72-hour incubation, the cells were lysed, and the cells were subjected to western blotting using antibodies (antacruz biotechnology, USA) each specific to MITF and tyrosinase, which are the factors involved in melanogenesis.

[6] = system: CREB phosphorylation in B16F10 cell line; test: Melanogenesis-related protein activity assay (CREB phosphorylation, western blotting); settings: B16F10 treated with the peptide, 48-hour incubation, result in words
Protocol: as §2, with “48-hour” for “72-hour”, “using specific” for “using”, “(Cell Signaling Technology,” for “(antacruz biotechnology,”, “USA)” for “USA) each specific”, “investigate the phosphorylation level of CREB,” for “MITF and tyrosinase,”, “is a signaling substance” for “are the factors”

[7] = system: tyrosinase mRNA in B16F10 cell line; test: RT-PCR of melanogenesis-related genes: tyrosinase; settings: B16F10 treated with the peptide, 72 hours, result in words
Protocol: as §1

Row | Substance | Melanin content (%) ([1]; 10 μM peptide) | Melanin content (%) ([1]; 50 μM peptide) | melanogenesis [1] | mRNA expression of MITF [2] | Tyrosinase activity (%) ([3]; 10 μM peptide) | Tyrosinase activity (%) ([3]; 50 μM peptide) | tyrosinase activity [3] | mRNA expression of TRP1 [4] | protein expression involved in the process of melanogenesis (MITF, tyrosinase) [5] | phosphorylation level of CREB [6] | mRNA expression of tyrosinase [7] | Tyrosinase activity (%) ([3]; 200 nM a-MSH)
1 | RVTAMRCFLL [SEQ ID NO: 3] | 106% | 164% | increased | increased | 114% | 173% | increased | increased | increased | increased | increased | 
2 | KVTAMRCFLL [SEQ ID NO: 2] | 109% | 155% | increased | increased | 144% | 189% | increased | increased | increased | increased | increased | 
3 | α-melanocyte stimulating hormone [a-MSH, reference compound] |  |  |  |  |  |  |  |  |  |  |  | 467% and 484%
4 | FCLGPCPYIWSL [SEQ ID NO: 1] | 125% | 264% | increased | increased | 157% | 201% | increased | increased | increased | increased | increased | 
